# Patent US7868005B2, “Pyrazinyl substituted piperazine-piperidines with CXCR3 antagonist activity” (Schering Corporation, priority 2005, dated 2011)
# Molecular target: T1, human CXCR3 (N-delta 4) (Homo sapiens, UniProt P49682)
# T1 construct: CD8 leader (N); Flag; expressed in transfected cells; membranes prepared
# T1 sequence (P49682 5-368 limits assumed): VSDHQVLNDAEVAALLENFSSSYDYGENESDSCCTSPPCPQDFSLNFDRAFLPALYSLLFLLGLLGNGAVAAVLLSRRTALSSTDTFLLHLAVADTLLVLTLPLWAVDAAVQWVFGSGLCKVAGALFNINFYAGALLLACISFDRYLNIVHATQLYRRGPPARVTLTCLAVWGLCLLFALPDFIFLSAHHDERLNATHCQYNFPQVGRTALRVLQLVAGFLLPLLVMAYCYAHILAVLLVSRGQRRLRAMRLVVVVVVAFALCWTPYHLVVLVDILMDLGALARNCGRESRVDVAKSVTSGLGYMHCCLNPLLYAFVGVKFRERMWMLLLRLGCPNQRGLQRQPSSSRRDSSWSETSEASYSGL
# Test: Human CXCR3 (N-delta 4) Scintillation Proximity Assay (SPA), [125I] IP-10 binding to Ba/F3-hCXCR3 membranes
# Conditions: IC50 rating, Table 1; read-out: IC50
row,SMILES,IC50 [µM]
1,CC[C@H]1CN(c2nc(N)c(C(=O)N[C@@H](CO)C(C)O)nc2Cl)CCN1C1CCN(C(=O)c2ccc(Cl)cc2)CC1 (some centres unmarked) [compound 328],> 0.1
2,CC[C@H]1CN(c2nc(N)c(C(=O)NC)nc2Cl)CCN1C1CCN(C(=O)c2ccc(Cl)cc2N)CC1 [compound 330],< 0.025
3,CC[C@H]1CN(c2nc(N)c(C(=O)NC)nc2Cl)CCN1C1CCN(C(=O)c2ccc(Br)cc2)CC1 [compound 331],< 0.025
4,CC[C@H]1CN(c2nc(N)c(C(=O)NC)nc2Cl)CCN1C1CCN(C(=O)c2ccc(Br)c(F)c2)CC1 [compound 333],< 0.025
5,CC[C@H]1CN(c2nc(N)c(C(=O)NCCO)nc2Cl)CCN1C1CCN(C(=O)c2ccc(Cl)cc2)CC1 [compound 334],< 0.025
6,CC[C@H]1CN(c2nc(N)c(C(=O)N[C@H](C)CO)nc2Cl)CCN1C1CCN(C(=O)c2ccc(Cl)cc2)CC1 [compound 335],< 0.025
7,CC[C@H]1CN(c2nc(N)c(C(=O)NC)nc2Cl)CCN1C1CCN(C(=O)c2ccc(Br)cc2F)CC1 [compound 342],0.025 to 0.1
8,CC[C@H]1CN(c2nc(N)c(C(=O)NCCO)nc2Cl)CCN1C1CCN(C(=O)c2ccc(Cl)cc2C(C)C#N)CC1 (some centres unmarked) [compound 344],0.025 to 0.1
9,CC[C@H]1CN(c2nc(N)c(C(=O)NCCO)nc2Cl)CCN1C1CCN(C(=O)c2cc(F)c(F)cc2N)CC1 [compound 345],0.025 to 0.1
10,CC[C@H]1CN(c2nc(N)c(C(=O)NCCO)nc2Cl)CCN1C1CCN(C(=O)c2ccc(F)c(F)c2N)CC1 [compound 348],0.025 to 0.1
11,CC[C@H]1CN(c2nc(N)c(C(=O)NCCO)nc2Cl)CCN1C1CCN(C(=O)c2ccc(Cl)cc2CCNC(C)=O)CC1 [compound 352],> 0.1
12,CC[C@H]1CN(c2nc(N)c(C(=O)NC)nc2Cl)CCN1C1CCN(C(=O)c2ccc(-n3cccn3)cc2)CC1 [compound 353],> 0.1
13,CC[C@H]1CN(c2nc(N)c(C(=O)NCCN/C(N)=N/C#N)nc2Cl)CCN1C1CCN(C(=O)c2ccc(Cl)cc2)CC1 [compound 355],> 0.1
14,CC[C@H]1CN(c2nc(N)c(C(=O)NC[C@@H](O)CO)nc2Cl)CCN1C1CCN(C(=O)c2ccc(Cl)cc2)CC1 [compound 356],> 0.1
15,CC[C@H]1CN(c2nc(N)c(C(N)=O)nc2Cl)CCN1C1CCN(C(=O)c2ccc(Cl)cc2CC(N)=O)CC1 [compound 357],> 0.1
16,CC[C@H]1CN(c2nc(N)c(C(=O)NN)nc2Cl)CCN1C1CCN(C(=O)c2ccc(Cl)cc2)CC1 [compound 358],> 0.1
17,CC[C@H]1CN(c2nc(N)c(C(=O)NC)nc2Cl)CCN1C1CCN(C(=O)c2ccc(Cl)cc2NC)CC1 [compound 366],> 0.1
18,CC[C@H]1CN(c2nc(N)c(C(=O)NC)nc2Cl)CCN1C1CCN(C(=O)c2c(C)cc(OCc3ccccc3)cc2C)CC1 [compound 367],> 0.1
19,CC[C@H]1CN(c2nc(N)c(C(=O)NC)nc2Cl)CCN1C1CCN(C(=O)C2Cc3ccccc3C2)CC1 [compound 368],> 0.1
20,CC[C@H]1CN(c2nc(N)c(C(=O)NC)nc2Cl)CCN1C1CCN(C(=O)C2(N)CCc3ccccc3C2)CC1 (some centres unmarked) [compound 369],> 0.1
21,CC[C@H]1CN(c2nc(N)c(C(=O)NC)nc2Cl)CCN1C1CCN(C(=N)c2ccc(Cl)cc2)CC1 [compound 371],< 0.025
22,CC[C@H]1CN(c2nc(N)c(C(=O)NCCO[Si](C(C)C)(C(C)C)C(C)C)nc2Cl)CCN1C1CCN(Cc2ccc(F)c(F)c2N2CC[C@H](O)C2)CC1 [compound 374],> 0.1
23,CC[C@H]1CN(c2nc(N)c(C(N)=O)nc2Cl)CCN1C1CCN(Cc2ccc(Cl)cc2C(N)C(N)=O)CC1 (some centres unmarked) [compound 381],0.025 to 0.1
24,CC[C@H]1CN(c2nc(N)c(C(N)=O)nc2Cl)CCN1C1CCN(Cc2ccc(Cl)cc2C2CNC(=O)O2)CC1 (some centres unmarked) [compound 385],< 0.025
25,CC[C@H]1CN(c2nc(N)c(C(N)=O)nc2Cl)CCN1C1CCN(Cc2ccc(Cl)cc2N2CCN(C)C2=O)CC1 [compound 386],< 0.025

# Other lines, results leading:
row,IC50 [µM],SMILES
1,> 0.1,CC[C@H]1CN(c2nc(N)c(C(N)=O)nc2Cl)CCN1C1CCN(C(=O)c2ccc(Cl)cc2CN2Cc3ccccc3C2)CC1 [compound 325]
2,> 0.1,CC[C@H]1CN(c2nc(N)c(C(=O)NCCO)nc2Cl)CCN1C1CCN(C(=O)c2ccc(Cl)cc2OCCN)CC1 [compound 326]
3,> 0.1,CC[C@H]1CN(c2nc(N)c(C(=O)NCCOCCO)nc2Cl)CCN1C1CCN(C(=O)c2ccc(Cl)cc2)CC1 [compound 327]
4,> 0.1,CC[C@H]1CN(c2nc(N)c(C(=O)N[C@H](CO)C(C)C)nc2Cl)CCN1C1CCN(C(=O)c2ccc(Cl)cc2)CC1 [compound 329]
5,< 0.025,CCNC(=O)c1nc(Cl)c(N2CCN(C3CCN(C(=O)c4ccc(Cl)cc4)CC3)[C@@H](CC)C2)nc1N [compound 332]
6,< 0.025,CC[C@H]1CN(c2nc(N)c(C(=O)NC)nc2Cl)CCN1C1CCN(C(=O)c2ccc(Cl)c(F)c2)CC1 [compound 336]
7,< 0.025,CCC(O)CNC(=O)c1nc(Cl)c(N2CCN(C3CCN(C(=O)c4ccc(Cl)cc4)CC3)[C@@H](CC)C2)nc1N (some centres unmarked) [compound 337]
8,< 0.025,CC[C@H]1CN(c2nc(N)c(C(=O)NC[C@@H](C)O)nc2Cl)CCN1C1CCN(C(=O)c2ccc(Cl)cc2)CC1 [compound 338]
9,< 0.025,CC[C@H]1CN(c2nc(N)c(C(=O)NCCO)nc2Cl)CCN1C1CCN(C(=O)c2ccc(Cl)cc2N)CC1 [compound 339]
10,< 0.025,CC[C@H]1CN(c2nc(N)c(C(=O)NC)nc2Cl)CCN1C1CCN(C(=O)c2ccc(C#N)cc2)CC1 [compound 340]
11,0.025 to 0.1,CC[C@H]1CN(c2nc(N)c(C(=O)NC)nc2Cl)CCN1C1CCN(C(=O)c2ccc(Cl)cc2C)CC1 [compound 341]
12,0.025 to 0.1,CC[C@H]1CN(c2nc(N)c(C(=O)NC)nc2Cl)CCN1C1CCN(C(=O)c2ccc(Cl)cc2O)CC1 [compound 343]
13,0.025 to 0.1,CC[C@H]1CN(c2nc(N)c(C(=O)NCCO)nc2Cl)CCN1C1CCN(C(=O)c2ccc(C#CC(C)(C)O)cc2)CC1 [compound 346]
14,0.025 to 0.1,CC[C@H]1CN(c2nc(N)c(C(=O)NCCO)nc2Cl)CCN1C1CCN(C(=O)c2ccc(Cl)cc2CCNS(C)(=O)=O)CC1 [compound 347]
15,0.025 to 0.1,CC[C@H]1CN(c2nc(N)c(C(N)=O)nc2Cl)CCN1C1CCN(C(=O)c2ccc(Cl)cc2)CC1 [compound 349]
16,0.025 to 0.1,CC[C@H]1CN(c2nc(N)c(C(=O)NC)nc2Cl)CCN1C1CCN(C(=O)c2ccc(OC(F)(F)F)cc2)CC1 [compound 350]
17,0.025 to 0.1,CC[C@H]1CN(c2nc(N)c(C(=O)NCCO)nc2Cl)CCN1C1CCN(C(=O)c2ccc(F)c(F)c2F)CC1 [compound 351]
18,> 0.1,CC[C@H]1CN(c2nc(N)c(C(=O)NC)nc2Cl)CCN1C1CCN(C(=O)c2ccc(-c3cnco3)cc2)CC1 [compound 354]
19,> 0.1,CC[C@H]1CN(c2nc(N)c(C(=O)NC[C@H](O)CO)nc2Cl)CCN1C1CCN(C(=O)c2ccc(Cl)cc2)CC1 [compound 359]

row,IC50 [µM],SMILES
1,> 0.1,CC[C@H]1CN(c2nc(N)c(C(=O)NCCO)nc2Cl)CCN1C1CCN(C(=O)c2ccc(F)c(F)c2NCc2ccccc2)CC1 [compound 360]
2,> 0.1,CC[C@H]1CN(c2nc(N)c(C(=O)NCCO)nc2Cl)CCN1C1CCN(C(=O)c2ccc(OC(F)(F)F)cc2O)CC1 [compound 361]
3,> 0.1,CC[C@H]1CN(c2nc(N)c(C(=O)NCCO)nc2Cl)CCN1C1CCN(C(=O)c2ccc(Cl)cc2OC)CC1 [compound 362]
4,> 0.1,CC[C@H]1CN(c2nc(N)c(C(=O)NCCO)nc2Cl)CCN1C1CCN(C(=O)c2cc(F)c(F)cc2NC(=O)c2cc(F)c(F)cc2N)CC1 [compound 363]
5,> 0.1,CC[C@H]1CN(c2nc(N)c(C(=O)NC)nc2Cl)CCN1C1CCN(C(=O)c2ccc(Cl)c(NS(C)(=O)=O)c2)CC1 [compound 364]
6,> 0.1,CC[C@H]1CN(c2nc(N)c(C(=O)NC)nc2Cl)CCN1C1CCN(C(=O)c2ccc(Cl)c(N)c2)CC1 [compound 365]
7,< 0.025,CC[C@H]1CN(c2nc(N)c(C(=O)NC)nc2Cl)CCN1C1CCN(C(=O)C2CCc3ccccc3C2)CC1 (some centres unmarked) [compound 370]
8,> 0.1,CC[C@H]1CN(c2nc(N)c(C(=O)OC)nc2Cl)CCN1C1CCN(C(=O)c2ccc(Cl)cc2C(C)C#N)CC1 (some centres unmarked) [compound 372]
9,> 0.1,CC[C@H]1CN(c2nc(N)c(C(=O)NNC(C)=O)nc2Cl)CCN1C1CCN(C(=O)c2ccc(Cl)cc2)CC1 [compound 373]
10,0.025 to 0.1,CC[C@H]1CN(c2nc(N)c(C(N)=O)nc2Cl)CCN1C1CCN(Cc2ccc(Cl)cc2C2COC(=O)O2)CC1 (some centres unmarked) [compound 375]
11,0.025 to 0.1,CC[C@H]1CN(c2nc(N)c(C(N)=O)nc2Cl)CCN1C1CCN(Cc2ccc(Cl)cc2NC(=O)C(C)O)CC1 (some centres unmarked) [compound 377]
12,< 0.025,CC[C@H]1CN(c2nc(N)c(C(N)=O)nc2Cl)CCN1C1CCN(Cc2ccc(Cl)cc2C(O)C(=O)N(C)C)CC1 (some centres unmarked) [compound 378]
13,> 0.1,CC[C@H]1CN(c2ncc(C(N)=O)nc2OC)CCN1C1CCN(C(=O)c2ccc(Cl)cc2)CC1 [compound 379]
14,> 0.1,CC[C@H]1CN(c2nc(N)c(C(N)=O)nc2Cl)CCN1C1CCN(Cc2ccc(Cl)cc2C2NC(=O)N(C)C2=O)CC1 (some centres unmarked) [compound 380]
15,> 0.1,CC[C@H]1CN(c2nc(N)c(C(N)=O)nc2Cl)CCN1C1CCN(Cc2ccc(Cl)cc2C(NC(C)=O)C(N)=O)CC1 (some centres unmarked) [compound 382]
16,> 0.1,CC[C@H]1CN(c2ncc(C(N)=O)nc2NC)CCN1C1CCN(C(=O)c2ccc(Cl)cc2)CC1 [compound 383]
17,> 0.1,CC[C@H]1CN(c2ncc(C(=O)NC)nc2NC)CCN1C1CCN(C(=O)c2ccc(Cl)cc2)CC1 [compound 384]
18,< 0.025,CC[C@H]1CN(c2ncc(C(N)=O)nc2Br)CCN1C1CCN(C(=O)c2ccc(Cl)cc2)CC1 [compound 387]
